From PubChem BioAssay (NCI) come the findings set out here.

Some test systems named below: HT29 colon; BT-549 breast; HOP-62 NSCLC; SK-OV-3 ovarian; K-562 leukemia; SNB-19 CNS; SR leukemia; SK-MEL-5 melanoma; SN12C renal; MDA-N; 786-0 renal; U251 CNS; UACC-62 melanoma; PC-3 prostate; NCI-H226 lung; CCRF-CEM leukemia; NCI-H522 lung; MDA-MB-231 breast; TK-10 renal; T-47D breast.
Assay in all cases: NCI tumour cell line growth inhibition, 48 h

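Interpolation was linear, between the two tested concentrations surrounding the appropriate level; five concentrations were tested over 48 hours in 96-well plates. TGI marks complete inhibition of growth.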

As for `O=C1SS(=O)c2ccccc21` (stereo not given), the TGI with HT29 colon, with BT-549 breast, in the assay with HOP-62 NSCLC, in the assay on SK-OV-3 ovarian, in the assay with K-562 leukemia and with SNB-19 CNS was > 100 µM each time. Further, the TGI in the assay on SR leukemia, in the assay with SK-MEL-5 melanoma, in the assay on SN12C renal, in the assay on MDA-N, with 786-0 renal and in the assay with U251 CNS was > 100 µM each time. In addition, the TGI in the assay on UACC-62 melanoma, in the assay on PC-3 prostate, in the assay on NCI-H226 lung, with CCRF-CEM leukemia, with NCI-H522 lung and in the assay on MDA-MB-231 breast was > 100 µM throughout.
Turning to `O=C(COc1ccc(OCC(=O)N2C(=O)CSC2=Nc2ccccc2)cc1)N1C(=O)CSC1=Nc1ccccc1`, the TGI with HT29 colon is 41.2 µM; in the assay with BT-549 breast it was > 100 µM; in the assay with TK-10 renal it was > 100 µM; with SK-OV-3 ovarian it was > 100 µM; in the assay with K-562 leukemia it was > 100 µM; in the assay on SNB-19 CNS it was > 100 µM. For the same compound, the TGI in the assay on SK-MEL-5 melanoma is 33.3 µM; in the assay on SN12C renal, > 100 µM; with MDA-N, 79.7 µM; in the assay on 786-0 renal it was 63.2 µM; in the assay with U251 CNS it was > 100 µM; in the assay with UACC-62 melanoma, 36 µM. Moreover, the TGI with PC-3 prostate is > 100 µM; with NCI-H226 lung it was > 100 µM; in the assay on NCI-H522 lung it was 42.1 µM; with MDA-MB-231 breast it was 90.1 µM.
On to `CC(C)(C)c1cc(C(C)(C)C)c(SS(=O)(=O)O)c(O)c1O`, for which the TGI in the assay on HT29 colon, with BT-549 breast, in the assay on HOP-62 NSCLC, in the assay on TK-10 renal, with SK-OV-3 ovarian and with K-562 leukemia was > 100 µM in each case. The TGI in the assay with SNB-19 CNS, in the assay with SK-MEL-5 melanoma, with SN12C renal, in the assay on MDA-N, in the assay with T-47D breast and in the assay on 786-0 renal was > 100 µM throughout. Also, the TGI was > 100 µM in the assay on U251 CNS; 55.2 µM in the assay on UACC-62 melanoma; > 100 µM with PC-3 prostate; > 100 µM in the assay with NCI-H226 lung; > 100 µM in the assay on CCRF-CEM leukemia; > 100 µM in the assay on MDA-MB-231 breast.
As for `c1ccc(Cc2nc(Cc3n[nH]c(Cc4ccccc4)n3)n[nH]2)cc1`, the TGI in the assay on HT29 colon, in the assay on BT-549 breast, with HOP-62 NSCLC, in the assay with TK-10 renal, in the assay on SK-OV-3 ovarian and in the assay with K-562 leukemia was > 100 µM throughout. Moreover, the TGI in the assay on SNB-19 CNS, with SR leukemia, in the assay with SK-MEL-5 melanoma, in the assay with SN12C renal, with MDA-N and in the assay with 786-0 renal was > 100 µM in each case. For the same compound, the TGI in the assay on U251 CNS, in the assay with UACC-62 melanoma, in the assay with PC-3 prostate, in the assay on CCRF-CEM leukemia, in the assay with NCI-H522 lung and in the assay on MDA-MB-231 breast was > 100 µM in each case.
As for `CCCCc1c2c(nc3c1CCCC3O)CCCC2` (stereo not given), the TGI with HT29 colon, in the assay on BT-549 breast, with HOP-62 NSCLC, in the assay on TK-10 renal, in the assay with SK-OV-3 ovarian and with K-562 leukemia was > 100 µM each time. Moreover, the TGI with SNB-19 CNS, in the assay with SR leukemia, in the assay with SK-MEL-5 melanoma, in the assay with SN12C renal, in the assay on MDA-N and in the assay on 786-0 renal was > 100 µM throughout. The TGI in the assay with U251 CNS, in the assay on UACC-62 melanoma, with PC-3 prostate, in the assay with NCI-H226 lung, with CCRF-CEM leukemia and with NCI-H522 lung was > 100 µM each time. Besides, the TGI with MDA-MB-231 breast is > 100 µM.
As for `CC(C)=NN/C(=N\S(=O)(=O)c1ccc(C)cc1)Nc1ccc(Cl)cc1`, the TGI in the assay on HT29 colon, with BT-549 breast, with HOP-62 NSCLC, with TK-10 renal, in the assay with K-562 leukemia and in the assay with SNB-19 CNS was > 100 µM throughout. Besides, the TGI in the assay on SK-MEL-5 melanoma, in the assay on SN12C renal, in the assay with MDA-N, with T-47D breast, in the assay with 786-0 renal and with U251 CNS was > 100 µM in each case. Also, the TGI in the assay with UACC-62 melanoma, in the assay on PC-3 prostate, in the assay on NCI-H226 lung, in the assay on CCRF-CEM leukemia, with NCI-H522 lung and in the assay with MDA-MB-231 breast was > 100 µM each time.
In the case of `Cc1nc2ccc(S(=O)(=O)Nc3ccccc3)cc2c(=O)n1NC(=O)CNc1ccccc1`, the TGI in the assay with HT29 colon, in the assay on BT-549 breast, in the assay on HOP-62 NSCLC, in the assay on TK-10 renal, in the assay on SK-OV-3 ovarian and in the assay with K-562 leukemia was > 100 µM in each case. Also, the TGI with SNB-19 CNS, in the assay on SR leukemia, with SN12C renal, in the assay on MDA-N, with 786-0 renal and in the assay with U251 CNS was > 100 µM in each case. Moreover, the TGI in the assay with UACC-62 melanoma, in the assay on PC-3 prostate, in the assay on NCI-H226 lung, with CCRF-CEM leukemia, in the assay on NCI-H522 lung and in the assay on MDA-MB-231 breast was > 100 µM each time.
